These results are taken from patent publication US20120258938A1, “Enzymatic Production or Chemical Synthesis and Uses for 5,7-Dienes and UVB Conversion Products Thereof” (priority 2008, published 2012).

The structures appear in SMILES notation.

One data set concerns Col1A1 mRNA. Kind of data set: Real time RT PCR Col1A1 mRNA, TGF-b1 stimulated skin fibroblasts. As to conditions: human skin fibroblasts. It is filed as cell-based. On the procedure: Additional studies using human skin fibroblasts were performed employing a type I collagen specific ELISA Chondrex, and real time RT PCR to quantitate type I collagen protein and Col1A1 mRNA expression in culture of human fibroblast stimulated by TGF-b1 in the presence and absence of 17,20S(OH)2pD3 and/or 20(OH)D3. These studies confirmed that Type I collagen protein production that was induced by TGF-b1 and that Col1A1 mRNA that was induced by TGF-b1 were suppressed by these analogues (FIGS. 44A-44B).

In data set [1] the test system is involucrin. Kind of data set: Real-time RT PCR involucrin mRNA, normal human epidermal keratinocytes. The class given is cell-based. As to conditions: 10^−8 M, 6 h. As for the experimental part: (§1) RNA was extracted using an Absolutely RNA RT-PCR Miniprep Kit (Stratagene, La Jolla, Calif.). Real time PCR and reverse transcription products were purchased from Applied Biosystems, Foster City, Calif. Reverse transcription was performed using Taqman® Reverse Transcription Reagents. The following PCR products were used: cytokeratin 14: Hs00265033_m1, involucrin: Hs00846307_s1, CYP27A1: Hs00168003_ml, CYP27B1: Hs00168017_ml, 18SrRNA: Hs99999901_s1. The reaction was performed with Taqman® Universal PCR Master Mix; data were collected on an ABI Prism 7700 and analyzed on Sequence Detector 1.9.1. Specific gene amounts were related to 18SrRNA by comparative CT method.

A further data set deals with CYP24 promoter. Nature of the data set: CYP24-Luc reporter in normal epidermal keratinocytes. The class given is cell-based, human. As to conditions: 24 h. The source says:
The CYP24-Luc construct was a generous gift from Dr Tai Cheng (Boston University Medical Campus, Core Lab Director). It was originally developed by Vaisanen et al. (27). The details of the pLuc construct have been described previously (28-29). Normal epidermal keratinocytes were transfected using Lipofectamine Plus (Invitrogen, Carlsbad, Calif.) in Epilife medium with firefly luciferase reporter gene plasmid and with phRL-TK (expresses Renilla luciferase and serves as normalization control; Promega, Madison, Wis.). After transfection, cells were incubated for 24 hours in EpiLife medium with HKGS. Cells were then transferred to fresh media containing the compounds to be tested or vehicle (ethanol) and incubated for 24 hours. The firefly luciferase and Renilla luciferase signals were recorded with a TD-20/20 luminometer (Turner Designs, Sunnyvale, Calif.); background luminescence was subtracted and the resulting promoter-specific firefly signal was divided by the Renilla signal (proportional to the number of transfected cells). The values obtained were divided by the mean of control (untreated) cells.

The next data set has as its target T1, rat CYP24 (Rattus norvegicus, UniProt Q09128).
T1 sequence (Q09128 36-514): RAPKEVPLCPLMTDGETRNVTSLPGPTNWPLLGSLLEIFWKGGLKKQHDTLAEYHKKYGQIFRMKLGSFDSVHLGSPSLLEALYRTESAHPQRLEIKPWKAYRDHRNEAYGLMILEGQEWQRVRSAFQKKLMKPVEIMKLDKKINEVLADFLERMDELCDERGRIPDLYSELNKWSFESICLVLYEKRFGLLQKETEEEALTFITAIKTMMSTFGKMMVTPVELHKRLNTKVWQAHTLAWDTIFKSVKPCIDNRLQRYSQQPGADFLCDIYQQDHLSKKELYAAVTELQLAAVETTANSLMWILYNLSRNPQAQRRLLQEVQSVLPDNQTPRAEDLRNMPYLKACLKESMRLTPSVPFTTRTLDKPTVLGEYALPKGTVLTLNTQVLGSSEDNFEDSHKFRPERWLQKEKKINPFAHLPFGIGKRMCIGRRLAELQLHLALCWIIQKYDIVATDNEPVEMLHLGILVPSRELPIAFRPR
Kind of data set: Metabolism by rat CYP24 in phospholipid vesicles. On the procedure:
Samples (typically 0.25-1.0 mL) were incubated at 37° C., with shaking, then reactions terminated by the addition of 2.5 mL ice-cold dichloromethane and vortexing. After phase separation aided by centrifugation, the lower organic phase was retained and the upper aqueous phase was extracted twice more with 2.5 mL aliquots of dichloromethane. The dichloromethane was removed under nitrogen and the residual sample dissolved in solvent for HPLC analysis.
(§2) To test enzymatic metabolism of 20S(OH)D3 and 20R(OH)D3, the substrates were incorporated into phospholipid vesicles with the ratio of substrate to phospholipid being 0.025 mol/mol phospholipid. Vesicles were incubated with 2 μM bovine CYP11A1 or 0.06 μM human CYP27B1 for up to 10 min. To test enzymatic metabolism of 20(OH)D3 in CYP24, the substrate was incorporated into phospholipids vesicles with 0.15-0.5 μM CYP24. To test enzymatic metabolism of 20(OH)D3 in CYP27A1, purified CYP27A1 was preincubated with the vesicles for 6 min at 37° C. Adrenodoxin was added last to initiate the reaction. For kinetic experiments, the incubations were typically 0.5 mL and were carried out over the initial linear period of the reaction (10 min for vitamin D3 and cholesterol and 30 min for 20(OH)D3).

For another data set, the system named is CYP27B1. Nature of the data set: Real-time RT PCR CYP27B1 mRNA, normal epidermal keratinocytes. It is filed as cell-based, human. As to conditions: 10^−8 M, 1 h. As for the experimental part: as §1
Data set [2] concerns CYP27A1. Nature of the data set: Real-time RT PCR CYP27A1 mRNA, normal epidermal keratinocytes. It is filed as cell-based, human. The settings on record: 10^−8 M, 24 h. On the procedure: as §1
The subject of data set [3] is involucrin. Nature of the data set: Involucrin protein expression in HaCaT (flow cytometry, microscopy). It is filed as cell-based, human. As to conditions: 10^−8 M, 24 h, flow cytometry. (Flow cytometry measures light scatter and fluorescence of single cells or particles in a stream.)
Data set [4] has as its system HaCaT keratinocytes. Kind of data set: Forward and side scatter (cell size, granularity) of HaCaT keratinocytes. As to conditions: HaCaT; 20-hydroxycholecalciferol at 0.1 nM. The class given is cell-based, human. As for the experimental part:
The FL-1 signal (collected from 10,000 events in side scatter/forward scatter window after debris exclusion) was recorded. Forward (relative to cell size) and side (relative to cell granularity) scatter histograms were generated and mean signal intensity was recorded. FL-1 signal values are presented as dMFI (difference between mean fluorescence intensity of sample stained with specific and isotype control antibody). Scatter signal values are presented as MSI (mean signal intensity). Signal intensities were analyzed with Cell Quest (BD Biosciences, San Diego, Calif.) and graphical representations of the FL-1 signal were prepared with WinMdi 2.8 (shareware from Joseph Trotter, The Scripps Research Institute, San Diego, Calif.).

The test system of data set [5] is HaCaT keratinocytes. Kind of data set: Colony forming (clonogenicity) assay in HaCaT keratinocytes. As to conditions: 10^−8 M, 10 days. It is filed as cell-based, human. On the procedure: HaCaT and human adult epidermal keratinocytes were cultured and DNA synthesis experiments were performed as described previously (26). Cells were plated in 6-well plates at a density of 20 cells/cm^2 in DMEM (Cellgro, Herndon Va.) containing 5% charcoal-treated fetal bovine serum (Hyclone, Logan, Utah), 1% antibiotic solution (PSA, Sigma, St. Louis, […].) and vehicle or secosteroids. Cells were incubated in 37° C. for 10 days with media being changed every 72 hr. Cells were fixed with 4% paraformaldehyde in PBS overnight, stained with 0.5% crystal violet in PBS for 15 min, rinsed and air-dried. The number and size of the colonies were measured using an ARTEK counter 880 (Dynex Technologies Inc., Chantilly, Va.). Colony forming units were calculated as follows: number of colonies (size>0.5 mm) was divided by the number of cells plated and multiplied by 100.

In another data set the target is T2, cytochrome P450scc (Bos taurus, UniProt P00189).
T2 sequence (P00189 40-520): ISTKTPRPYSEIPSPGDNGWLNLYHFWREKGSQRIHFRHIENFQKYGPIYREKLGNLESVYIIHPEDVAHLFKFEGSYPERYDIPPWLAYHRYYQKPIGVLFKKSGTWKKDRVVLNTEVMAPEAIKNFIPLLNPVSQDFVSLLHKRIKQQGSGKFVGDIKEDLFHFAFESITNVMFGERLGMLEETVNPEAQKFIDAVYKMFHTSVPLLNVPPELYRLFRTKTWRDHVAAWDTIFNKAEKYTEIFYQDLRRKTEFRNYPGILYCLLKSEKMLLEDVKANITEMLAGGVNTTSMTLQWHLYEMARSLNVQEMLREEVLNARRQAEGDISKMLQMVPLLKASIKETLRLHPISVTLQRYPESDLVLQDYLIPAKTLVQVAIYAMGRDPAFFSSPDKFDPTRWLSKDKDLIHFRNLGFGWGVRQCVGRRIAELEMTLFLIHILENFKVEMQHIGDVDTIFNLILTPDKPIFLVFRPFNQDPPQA
Nature of the data set: Metabolism by cytochrome P450scc in cyclodextrin. The settings on record: substrate in 0.45% cyclodextrin. As for the experimental part:
Adrenodoxin was expressed in Escherichia coli and purified as described before (41). […] Metabolites were analysed using a Perkin Elmer HPLC equipped with a C18 column (Brownlee Aquapore, 22 cm×4.6 mm, particle size 7 μm).

Data set [6] deals with T3, CYP27A1 (Homo sapiens, UniProt Q02318).
T3 sequence (Q02318 34-531): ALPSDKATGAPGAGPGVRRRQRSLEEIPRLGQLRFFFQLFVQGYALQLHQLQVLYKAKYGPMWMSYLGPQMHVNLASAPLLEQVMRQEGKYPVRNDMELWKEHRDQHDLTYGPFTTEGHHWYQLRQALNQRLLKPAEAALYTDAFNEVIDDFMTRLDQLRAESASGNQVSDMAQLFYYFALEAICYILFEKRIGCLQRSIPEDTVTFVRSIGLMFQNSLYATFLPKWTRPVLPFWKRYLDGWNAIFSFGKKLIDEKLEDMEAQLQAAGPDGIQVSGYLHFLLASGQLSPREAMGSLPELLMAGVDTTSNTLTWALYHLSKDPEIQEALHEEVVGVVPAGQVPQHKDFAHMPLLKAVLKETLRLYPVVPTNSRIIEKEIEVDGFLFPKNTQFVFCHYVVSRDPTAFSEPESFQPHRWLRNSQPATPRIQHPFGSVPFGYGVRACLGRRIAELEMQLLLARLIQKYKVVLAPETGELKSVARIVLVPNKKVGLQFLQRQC
Kind of data set: Metabolism by CYP27A1 (cyclodextrin or phospholipid vesicles). As to conditions: cyclodextrin. On the procedure: as §2
Kinetic characterization of the metabolism of 20(OH)D3 by CYP27A1 was carried out with substrate dissolved in either cyclodextrin or phospholipid vesicle. Vitamin D3 and 20(OH)D3 were incubated with 0.4 μM CYP27A1 and 1 μM CYP27A1, respectively, for 10 and 30 min. The products were analyzed by reverse phase HPLC. The hyperbolic curves were fitted using the equation v/[E]=(kcat—[S])/(Km+[S]) where v is reaction velocity, [E] is the CYP27A1 concentration, and [S] the substrate concentration.

Take `C=C1CCC(O)CC1=CC=C1CCCC2(C)C1CCC2(O)C(C)O` [17,20Rdi(OH)pD, (5Z,7E)-(20R)-9,10-secopregna-5,7,10(19)-triene-3β,17α,20-triol]: in the data set on Col1A1 mRNA, the “TGF-b1 induced Col1A1 mRNA” value is recorded as “reduce TGF-β1 induced Col1A1 mRNA”.
As to `C=C1CC[C@H](O)C/C1=C/C=C1\CCC[C@]2(C)[C@@H]([C@H](C)CCCC(C)(C)O)CC[C@@H]12` [25-hydroxycholecalciferol, (5Z,7E)-9,10-secocholesta-5,7,10(19)-triene-3β,25-diol, reference compound], in the data set with involucrin [1], the “stimulation of involucrin mRNA” value was approximately 2.1 fold. Besides, the “stimulation of transcriptional activity of the CYP24 promoter” value in the data set with CYP24 promoter is approximately 12 fold. Further, the Km on rat CYP24 is 0.0080±0.0016 mol substrate/mol phospholipid. Moreover, on rat CYP24 (phospholipid vesicles), the kcat is 52.6±2.9 mol/min/mol CYP24 and the “kcat higher than that for 1,25(OH)2D3” value is 3.8 fold. Besides, the “increase of CYP27B1 expression” value in the data set with CYP27B1 is approximately 1.3 fold. Also, the “inhibition of CYP27A1 expression” value with CYP27A1 [2] is reported as approximately 1.9 fold. In the data set with involucrin [3], the “increase in the expression of involucrin” value was “negligible”. The “forward scatter, mean signal intensity (MSI)” value with HaCaT keratinocytes [4] stood at 254±0.06. Moreover, in the data set on HaCaT keratinocytes [5], the “inhibition of colony formation” value is reported as “no significant effect”.
On to `C=C1CC[C@H](O)C/C1=C/C=C1\CCC[C@]2(C)[C@@H]([C@H](C)CCCC(C)C)CC[C@@H]12` [cholecalciferol, (5Z,7E)-9,10-secocholesta-5,7,10(19)-triene-3β-ol, reference compound], for which the kcat at cytochrome P450scc amounted to 19.7±0.9 mol/min P450scc; at CYP27A1 [6] it was 0.0283 ± 0.00233 s⁻¹.
